Where two headings read alike, the source gives them in different places.
Legend:
[1] = test system: nine PDAC patient-derived organoids (PDOs); assay: PDO viability assay (CellTiter-Glo, 72 h), panel; type: cell-based; conditions: Homo sapiens; range among the nine PDOs; read-out: EC50 (monotherapy)
Procedure: Primary patient-derived PDAC organoid (PDO) experiments were performed in the laboratories of Prof. Maximilian Reichert (University Hospital of the TU Munich, Germany, PDO set 1: B250, B535, B678) and Prof. Jens T. Siveke (University Hospital Essen, Germany; PDO set 2: UME008, UME012, UME051, UME053, UME060, UME061). PDOs were generated from surgical resection, EUS-guided fine needle biopsy (EUS-FNB), or ascites (Appendix Table S2). Surgical specimens were first minced with a sterile scalpel and subsequently washed with Anti-Anti solution and washing medium (PDO set 1), or vice versa (PDO set 2; Appendix Table S3). Biopsy samples were directly washed with an Anti-Anti solution and washing medium. Samples were digested using 1 ml of digestion medium at 37 °C while shaking, and the enzymatic reaction was stopped by adding 15 ml of washing medium (Appendix Table S3). […]
For viability assays in PDOs, confluent organoids were removed from medium, and Matrigel was dissolved by adding 200 μl (PDO set 1) or 2 ml (PDO set 2) of Cell Recovery Solution (Corning), and additionally 500 μl of DPBS (PDO set 1 only). […] After 72 h, cell viability was measured using the CellTiter-Glo Luminescent Cell Viability Assay (Promega) diluted 1:5 in the final volume of the well. […]

PRKAG1 = test system: PRKAG1; design: method as in Reinecke et al. (2023); conditions: PRKAG1, 5 cell line mix lysate, Kinobeads ε, ref Reinecke et al. (2023), cited from earlier work
TBKBP1 = conditions: TBKBP1, 5 cell line mix lysate, Kinobeads ε, ref Reinecke et al. (2023), cited from earlier work
PTK2 = test system: PTK2; design: method as in Reinecke et al. (2023); conditions: PTK2, 5 cell line mix lysate, Kinobeads ε, ref Reinecke et al. (2023), cited from earlier work
CSNK2A2 = conditions: CSNK2A2, 5 cell line mix lysate, Kinobeads ε, ref Reinecke et al. (2023), cited from earlier work
MAP3K6 [2] = test system: MAP3K6; design: method as in Reinecke et al. (2023); conditions: MAP3K6, 5 cell line mix lysate, Kinobeads ε, ref Reinecke et al. (2023), cited from earlier work
MAP3K11 = conditions: MAP3K11, 5 cell line mix lysate, Kinobeads ε, ref Reinecke et al. (2023), cited from earlier work
PHKA2 = test system: PHKA2; design: method as in Reinecke et al. (2023); conditions: PHKA2, 5 cell line mix lysate, Kinobeads ε, ref Reinecke et al. (2023), cited from earlier work
JAK2 = test system: JAK2; design: method as in Reinecke et al. (2023); conditions: JAK2, 5 cell line mix lysate, Kinobeads ε, ref Reinecke et al. (2023), cited from earlier work
PRKAB1 = test system: PRKAB1; design: method as in Reinecke et al. (2023); conditions: PRKAB1, 5 cell line mix lysate, Kinobeads ε, ref Reinecke et al. (2023), cited from earlier work
TANK = test system: TANK; design: method as in Klaeger et al. (2017); conditions: lysate 4 cell line mix (Colo205, K-562, MV-4-11, and SK-N-BE(2)), Kinobeads y, ref Klaeger et al. (2017); cited from earlier work
MAP2K5 = test system: MAP2K5; design: method as in Klaeger et al. (2017); conditions: lysate 4 cell line mix (Colo205, K-562, MV-4-11, and SK-N-BE(2)), Kinobeads y, ref Klaeger et al. (2017); cited from earlier work
BTK = test system: BTK; design: method as in Klaeger et al. (2017); conditions: lysate 4 cell line mix (Colo205, K-562, MV-4-11, and SK-N-BE(2)), Kinobeads y, ref Klaeger et al. (2017); cited from earlier work
MAP3K6 [3] = test system: MAP3K6; design: method as in Klaeger et al. (2017); conditions: lysate 4 cell line mix (Colo205, K-562, MV-4-11, and SK-N-BE(2)), Kinobeads y, ref Klaeger et al. (2017); cited from earlier work

Nc1ccn([C@@H]2O[C@H](CO)[C@@H](O)C2(F)F)c(=O)n1 [GEM, Gemcitabine]
EC50 [1]: 0.003 to 0.285 µM

COc1cc(N2CCC(N3CCN(C)CC3)CC2)ccc1Nc1ncc(Cl)c(Nc2ccccc2P(C)(C)=O)n1 [Brigatinib]
EC50 (PRKAG1): 0.559 µM | pKDapp (PRKAG1): 6.45 | Kd (PRKAG1; read-out: KDapp): 0.354 µM | EC50 (TBKBP1): 0.94 µM | pKDapp (TBKBP1): 6.13 | Kd (TBKBP1; read-out: KDapp): 0.746 µM | EC50 (PTK2): 0.0126 µM | pKDapp (PTK2): 8.29 | Kd (PTK2; read-out: KDapp): 0.00515 µM | EC50 (CSNK2A2): 0.72 µM | pKDapp (CSNK2A2): 6.16 | Kd (CSNK2A2; read-out: KDapp): 0.693 µM | EC50 (MAP3K6 [2]): 0.844 µM | pKDapp (MAP3K6 [2]): 6.16 | Kd (MAP3K6 [2]; read-out: KDapp): 0.697 µM | EC50 (MAP3K11): 3.2 µM | pKDapp (MAP3K11): 5.65 | Kd (MAP3K11; read-out: KDapp): 2.23 µM | EC50 (PHKA2): 0.0197 µM | pKDapp (PHKA2): 7.71 | Kd (PHKA2; read-out: KDapp): 0.0197 µM | EC50 (JAK2): 4.34 µM | pKDapp (JAK2): 5.46 | Kd (JAK2; read-out: KDapp): 3.47 µM | EC50 (PRKAB1): 0.507 µM | pKDapp (PRKAB1): 6.47 | Kd (PRKAB1; read-out: KDapp): 0.335 µM

C[C@]12O[C@H](C[C@]1(O)CO)n1c3ccccc3c3c4c(c5c6ccccc6n2c5c31)CNC4=O [Lestaurtinib]
EC50 (TANK): 1.34 µM | EC50 (MAP2K5): 2.05 µM | EC50 (BTK): […] | EC50 (MAP3K6 [3]): 0.458 µM
